Laboratory results taken from patent US10676754B2, “Compositions and methods for producing plants resistant to glyphosate herbicide” (E I DU PONT DE NEMOURS AND COMPANY, priority 2014, dated 2020).

B1: I-SceI: wild type yeast I-SceI homing nuclease (protein, UniProt P03882 1-235, looked up)
Intron-encoded endonuclease …: MKNIKKNQVMNLGPNSKLLKEYKSQLIELNIEQFEAGIGLILGDAYIRSRDEGKTYCMQFEWKNKAYMDHVCLLYDQWVLSPPHKKERVNHLGNLVITWGAQTFKHQAFNKLANLFIVNNKKTIPNNLVENYLTPMSLAYWFMDDGGKWDYNKNSTNKSIVLNTQSFTFEEVEYLVKGLRNKFQLNCYVKINKNKPIIYIDSMSYLIFYNLIKPYLIPQMMYKLPNTISSETFLK

How the values were obtained:
[1] = system: maize plants; experiment: Glyphosate spray test on maize plants at V3 growth stage; type: in vivo
Experimental: TO plants grew well in the greenhouse and were fertile. A sample of TO plants was sprayed with a 1× dose of glyphosate at V3 growth stage using the spray booth setting of 20 gallons per acre. The 1× dose of glyphosate was prepared as follow: 2.55 ml Powermax in 300 ml water (active ingredient: glyphosate, N-(phosphonomethyl) glycine, in the form of its potassium salt at 48.7%). […] This TO plant was designated as hemizygous at the epsps locus.
A random sample of the F1 plants progeny of the E1 and E2 parental plants) was sprayed with 2.55 ml Powermax (glyphosate solution) in 300 ml water at the setting of 20 gallons per acre at the V3 stage of growth.

[2] = system: F2 maize embryos; experiment: Embryo rescue: germination of F2 embryos on rooting media containing glyphosate; type: in vivo
Experimental: For embryo rescue of the F2 progeny seedlings from selfed F1 plants, ears were harvested 18 days after pollination and sterilized in 20:80 bleach/water mix. Embryos were excised and placed on rooting media (272V—4.3 g/L Murashige and Skoog basal salt mixture, 5.0 ml/L MS vitamins stock solution, 100 mg/L mio-inositol, 40 g/L sucrose, 6 g/L Bacto Agar) with or without glyphosate at 0.1 mM, 0.5 mM, 1 mM, 3 mM concentration. They were transferred to a light room at 26° C. and allowed to germinate for 7 days. Embryos containing the wild-type EPSPS alleles, hemizygous and homozygous for the epsps-TIPS allele germinated on media without glyphosate. […] The presence of the epsps-TIPS allele in the analyzed seedlings is indicated as “positive” or “negative”, while the wild-type EPSPS allele copy number is indicated in the columns to the right (Table 14)

[3] = system: artificial I-SceI recognition site in maize genome; settings: analyzed F1 plants, transgenic nuclease introduced by crossing and activated by gene excision; cited from earlier work
[4] = epsps-TIPS-containing F1 plants after spray

| Molecule | survival of plants ([1]; F1 plants containing the epsps-TIPS edited allele, 2.55 ml Powermax in 300 ml water, 20 gallons per acre, V3) | leaf tissue damage ([1]; F1 plants without the epsps-TIPS allele, 2.55 ml Powermax in 300 ml water, 20 gallons per acre, V3) | leaf tissue damage ([1]; T0 plants hemizygous for epsps-TIPS alleles, 1× dose, V3, 20 gallons per acre, seven days after application) | growth of plants [1, 4] | leaf symptoms over time [1, 4] | leaf tissue damage ([1]; one T0 plant hemizygous at the epsps locus, 1× dose, 14 days after application) | leaf tissue damage ([1]; other T0 plantlets, 1× dose, V3, 20 gallons per acre, seven days after application) | tolerance of plants ([1]; some epsps-TIPS edited maize T0 plants, 1× dose) | green seedling production ([2]; 0.1 mM in rooting media, 7 days, 26° C., F2 embryos) | wild-type seedlings among germinating embryos ([2]; 0.1 mM or any other concentration up to 3 mM in media) | green seedling production ([2]; embryos homozygous for the epsps-TIPS allele, 1.0 mM) | green seedling production ([2]; hemizygous embryos, 1.0 mM) | plants with mutations of the recognition sequence [3] [%] |
| --- | --- | --- | --- | --- | --- | --- | --- | --- | --- | --- | --- | --- | --- |
| O=C(O)CNCP(=O)(O)O [glyphosate, N-phosphonomethylglycine] | survived | severe leaf tissue damage | no leaf tissue damage | slowed down | bleached sectors of the leaf tissue on newly emerging leaves | no damage to the leaf tissue | severely damaged | some level of tolerance | only embryos containing the epsps-TIPS alleles produced green seedlings | No wild-type seedlings were detected | produced green seedlings | did not |  |
| B1 |  |  |  |  |  |  |  |  |  |  |  |  | 1 |
